According to ChEMBL document CHEMBL1125198, “Synthesis, ligand binding, QSAR, and CoMFA study of 3 beta-(p-substituted phenyl)tropane-2 beta-carboxylic acid methyl esters” (J Med Chem, 1991):

Target: Sodium-dependent dopamine transporter (Rattus norvegicus, UniProt P23977)
Experiment: Affinity against cocaine binding site of dopamine transporter in rat striatum using [3H]2b as radioligand.
Type: tissue-based

Sequence of Sodium-dependent dopamine transporter (P23977 whole entry): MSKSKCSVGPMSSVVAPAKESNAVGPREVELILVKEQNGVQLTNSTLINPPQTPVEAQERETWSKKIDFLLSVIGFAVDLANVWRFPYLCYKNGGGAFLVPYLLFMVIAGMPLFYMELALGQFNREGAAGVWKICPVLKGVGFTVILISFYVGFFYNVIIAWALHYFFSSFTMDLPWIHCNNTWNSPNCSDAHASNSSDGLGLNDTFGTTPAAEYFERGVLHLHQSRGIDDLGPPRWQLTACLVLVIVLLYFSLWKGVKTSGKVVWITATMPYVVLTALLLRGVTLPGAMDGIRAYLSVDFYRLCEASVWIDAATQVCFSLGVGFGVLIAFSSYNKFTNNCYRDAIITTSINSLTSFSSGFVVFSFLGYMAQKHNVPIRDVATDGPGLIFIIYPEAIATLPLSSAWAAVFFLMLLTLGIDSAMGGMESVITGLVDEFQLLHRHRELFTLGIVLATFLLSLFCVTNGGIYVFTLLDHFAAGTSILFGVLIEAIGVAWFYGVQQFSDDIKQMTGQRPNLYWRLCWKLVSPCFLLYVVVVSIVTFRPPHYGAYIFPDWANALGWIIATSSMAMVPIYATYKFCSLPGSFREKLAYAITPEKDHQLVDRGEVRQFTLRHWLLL

Structure (SMILES) | IC50
COC(=O)C1C2CC[C@H](C[C@H]1c1ccc(Br)cc1)N2C (some centres not stated) | 1.81 nM
CCC(=O)Nc1ccc([C@H]2C[C@H]3CCC([C@H]2C(=O)OC)N3C)cc1 | 68 nM
COC(=O)[C@@H]1C2CC[C@H](C[C@@H]1c1ccc(N)cc1)N2C | 24.8 nM
COC(=O)C1C2CC[C@H](C[C@H]1c1ccc(C)cc1)N2C (some centres not stated) | 1.71 nM
CCOC(=O)Nc1ccc([C@H]2C[C@H]3CCC([C@H]2C(=O)OC)N3C)cc1 | 316 nM
COC(=O)C1C2CC[C@H](C[C@@H]1c1ccc(Cl)cc1)N2C (some centres not stated) | 1.17 nM
COC(=O)[C@@H]1C2CC[C@H](C[C@@H]1c1cccs1)N2C | 257 nM
COC(=O)[C@@H]1C2CC[C@H](C[C@@H]1c1ccccc1)N2C | 23 nM
COC(=O)[C@@H]1C2CC[C@H](C[C@@H]1c1ccc(NC(C)=O)cc1)N2C | 64.2 nM
COC(=O)[C@@H]1C2CC[C@H](C[C@@H]1c1ccc(N=[N+]=[N-])cc1)N2C | 2.12 nM
COC(=O)C1C2CC[C@H](C[C@@H]1c1ccc(I)cc1)N2C (some centres not stated) | 1.26 nM
COC(=O)[C@@H]1C2CC[C@H](C[C@@H]1c1ccc(C(F)(F)F)cc1)N2C | 13.1 nM
